Assay results from ChEMBL document CHEMBL1128032, “Synthesis and antiviral activity of amino acid esters of ribavirin” (1994).

Legend:
Suid alphaherpesvirus 1 [1] = test: Antiviral activity against pseudorabies virus strain Anjeszky A2 was determined as zone of cytotoxicity; format: functional; parameters: unit not given here
Suid alphaherpesvirus 1 [2] = test: Antiviral effect against pseudorabies virus strain Anjeszky A2 by the difference between zone of plaque inhibition and zone of cytotoxicity; format: functional
Newcastle disease virus [3] = test: Antiviral activity against newcastle disease virus strain Russeff (NDV) was determined as zone of plaque inhibition; format: functional, avian paramyxovirus 1
Influenza A virus [4] = test: Antiviral activity against influenza virus A strain H7N7 (FPV) was determined as zone of plaque inhibition; format: functional, unidentified influenza virus
Influenza A virus [5] = test: Antiviral activity against influenza virus A strain H7N7 (FPV) was determined as zone of cytotoxicity; format: functional, unidentified influenza virus
Influenza A virus [6] = test: Antiviral effect against influenza virus A strain H7N7 (FPV) by the difference between zone of plaque inhibition and zone of cytotoxicity; (6-10 mm); format: functional, unidentified influenza virus
Newcastle disease virus [7] = test: Antiviral effect against newcastle disease virus strain Russeff (NDV) by the difference between zone of plaque inhibition and zone of cytotoxicity; (11-12 mm); format: functional, avian paramyxovirus 1
Suid alphaherpesvirus 1 [8] = test: Antiviral activity against pseudorabies virus strain Anjeszky A2 was determined as zone of plaque inhibition; format: functional; parameters: unit not given here
Newcastle disease virus [9] = test: Antiviral activity against newcastle disease virus strain Russeff (NDV) was determined as zone of cytotoxicity; format: functional, avian paramyxovirus 1; parameters: unit not given here
Influenza A virus [10] = test: Antiviral effect against influenza virus A strain H7N7 (FPV) by the difference between zone of plaque inhibition and zone of cytotoxicity; format: functional, unidentified influenza virus
Newcastle disease virus [11] = test: Antiviral effect against newcastle disease virus strain Russeff (NDV) by the difference between zone of plaque inhibition and zone of cytotoxicity; format: functional, avian paramyxovirus 1
Newcastle disease virus [12] = test: Antiviral effect against newcastle disease virus strain Russeff (NDV) by the difference between zone of plaque inhibition and zone of cytotoxicity; (21-40 mm); format: functional, avian paramyxovirus 1
Suid alphaherpesvirus 1 [13] = test: Antiviral effect against pseudorabies virus strain Anjeszky A2 by the difference between zone of plaque inhibition and zone of cytotoxicity; (21-40 mm); format: functional
Influenza A virus [14] = test: Antiviral effect against influenza virus A strain H7N7 (FPV) by the difference between zone of plaque inhibition and zone of cytotoxicity; (11-12 mm); format: functional, unidentified influenza virus
Suid alphaherpesvirus 1 [15] = test: Antiviral effect against pseudorabies virus strain Anjeszky A2 by the difference between zone of plaque inhibition and zone of cytotoxicity; (6-10 mm); format: functional
Newcastle disease virus [16] = test: Antiviral effect against newcastle disease virus strain Russeff (NDV) by the difference between zone of plaque inhibition and zone of cytotoxicity; (6-10 mm); format: functional, avian paramyxovirus 1

SMILES | Activity (Suid alphaherpesvirus 1 [1]) | Activity (Suid alphaherpesvirus 1 [2]) | Activity (Newcastle disease virus [3]) | Activity (Influenza A virus [4]) | Activity (Influenza A virus [5]) | Activity (Influenza A virus [6]) | Activity (Newcastle disease virus [7]) | Activity (Suid alphaherpesvirus 1 [8]) | Activity (Newcastle disease virus [9]) | Activity (Influenza A virus [10]) | Activity (Newcastle disease virus [11]) | Activity (Newcastle disease virus [12]) | Activity (Suid alphaherpesvirus 1 [13]) | Activity (Influenza A virus [14]) | Activity (Suid alphaherpesvirus 1 [15]) | Activity (Newcastle disease virus [16])
CC(C)C[C@H](NC(=O)OC(C)(C)C)C(=O)OCC1OC(n2cnc(C(N)=O)n2)C2OC(C)(C)OC12 (stereo partly drawn) | 16 | 5 mm | 28 mm | 16.8 mm | 8.3 mm | 10 mM | 12 mM | 18 | 16 |  |  |  |  |  |  | 
CC(C)(C)OC(=O)N[C@@H](Cc1c[nH]c2ccccc12)C(=O)OCC1OC(n2cnc(C(N)=O)n2)C2OC(C)(C)OC12 (stereo partly drawn) | 9 | 5 mm | 0 mm | 15.7 mm | 10.7 mm |  |  | 0 | 10.7 | 5 mM | 5 mM |  |  |  |  | 
NC(=O)c1ncn([C@@H]2O[C@H](CO)[C@@H](O)[C@H]2O)n1 [RIBAVIRIN] |  |  |  |  |  |  |  |  |  |  |  | 40 mM | 40 mM | 12 mM |  | 
CC(C)(C)OC(=O)NCC(=O)OC[C@H]1O[C@@H](n2cnc(C(N)=O)n2)[C@@H]2OC(C)(C)O[C@@H]21 | 15 |  | 31.5 mm | 0 mm | 10.2 mm |  | 12 mM | 23.5 | 19 | 5 mM |  |  |  |  | 10 mM | 
CC(C)(C)OC(=O)N1CCC[C@H]1C(=O)OCC1OC(n2cnc(C(N)=O)n2)C2OC(C)(C)OC12 (stereo partly drawn) | 10 | 5 mm | 16.5 mm | 22.8 mm | 14 mm | 10 mM |  | 0 | 8.7 |  |  |  |  |  |  | 10 mM
CC(C)(C)OC(=O)N[C@@H](Cc1ccccc1)C(=O)OCC1OC(n2cnc(C(N)=O)n2)C2OC(C)(C)OC12 (stereo partly drawn) | 16.5 | 5 mm | 0 mm | 19.3 mm | 9.2 mm |  |  | 0 | 16.5 |  | 5 mM |  |  | 12 mM |  | 
